Experimental findings from publication PMC2254147, “Novel Triazine JPC-2067-B Inhibits Toxoplasma gondii In Vitro and In Vivo” (PLoS Neglected Tropical Diseases, 2008) are described below.

pIC50: −log10 of the molar value. “Also recorded” adds a separate entry of the source. Where two headings read alike, the source gives them in different places.

The target of data set [1] is T1, Rat liver DHFR (Rattus norvegicus, UniProt Q920D2).
T1 construct: Rat liver DHFR was prepared from livers of female Sprague-Dawley rats; from tissue; host or cells: liver of female Sprague-Dawley rats
T1 sequence (Q920D2 1-187): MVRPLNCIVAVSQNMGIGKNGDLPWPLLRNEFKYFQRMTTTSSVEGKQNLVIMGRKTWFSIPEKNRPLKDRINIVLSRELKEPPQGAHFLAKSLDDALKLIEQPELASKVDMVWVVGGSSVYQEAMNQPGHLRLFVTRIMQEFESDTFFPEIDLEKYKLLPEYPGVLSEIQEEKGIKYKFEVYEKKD
The data set can be described thus: Spectrophotometric DHFR assay, rat liver DHFR. It counts as biochemical. To be noted: 37°C; (95% confidence limits). As to the method: Rat liver DHFR was prepared from livers of female Sprague-Dawley rats. The 100,000× g supernate was partially purified by ammonium sulfate precipitation; the 50–90% precipitate was re-dissolved and stored in liquid nitrogen.
(§1) The spectrophotometric assay for DHFR was optimized for temperature and concentration of substrate and cofactor for each enzyme. […] The reaction was continuously recorded for 3 minutes. […] The low background activity in the absence of dihydrofolic acid was subtracted from all rates.
(§2) DHFR was assayed with several concentrations of inhibitor to produce rates ranging from 1 to 90% of the uninhibited rate. At least three concentrations were required for calculation; most curves contained five concentrations.

Data set [2] relates to T. gondii. The data set can be described thus: Cidal test: cultures kept 52 days after removing compound on the 4th day. It counts as cell-based, Toxoplasma gondii. To be noted: exposed 4 days, compound removed, cultured 52 days. An excerpt: In separate experiments, to determine whether JPC-2067-B would be cidal for T. gondii, cultures were maintained for 52 days after removing JPC-2067-B on the 4th day of culture.

In data set [3] the test system is tester strains TA97, TA98, TA100, TA102 and TA1535. The data set can be described thus: Ames Test with and without microsomal activation. As to the method: A 42-day toxicology study in CD-1 mice at doses up to 98 mg/kg evaluating well-being, weight gain, and histopathology was performed. […] 7.5 mg/kg was established as the NOAEL (No Observed Adverse Effect Level). JPC-2056 and JPC-2067 were assayed in the Ames Test with and without microsomal activation with tester strains TA97, TA98, TA100, TA102 and TA1535.

Data set [4] concerns the target T2, TgDHFR (Toxoplasma gondii, UniProt Q07422).
T2 construct: DHFR from T. gondii was isolated directly from RH strain T. gondii grown in culture; endogenous in cells; host or cells: RH strain T. gondii grown on CHO/dhfr- cells
T2 sequence (Q07422 1-610): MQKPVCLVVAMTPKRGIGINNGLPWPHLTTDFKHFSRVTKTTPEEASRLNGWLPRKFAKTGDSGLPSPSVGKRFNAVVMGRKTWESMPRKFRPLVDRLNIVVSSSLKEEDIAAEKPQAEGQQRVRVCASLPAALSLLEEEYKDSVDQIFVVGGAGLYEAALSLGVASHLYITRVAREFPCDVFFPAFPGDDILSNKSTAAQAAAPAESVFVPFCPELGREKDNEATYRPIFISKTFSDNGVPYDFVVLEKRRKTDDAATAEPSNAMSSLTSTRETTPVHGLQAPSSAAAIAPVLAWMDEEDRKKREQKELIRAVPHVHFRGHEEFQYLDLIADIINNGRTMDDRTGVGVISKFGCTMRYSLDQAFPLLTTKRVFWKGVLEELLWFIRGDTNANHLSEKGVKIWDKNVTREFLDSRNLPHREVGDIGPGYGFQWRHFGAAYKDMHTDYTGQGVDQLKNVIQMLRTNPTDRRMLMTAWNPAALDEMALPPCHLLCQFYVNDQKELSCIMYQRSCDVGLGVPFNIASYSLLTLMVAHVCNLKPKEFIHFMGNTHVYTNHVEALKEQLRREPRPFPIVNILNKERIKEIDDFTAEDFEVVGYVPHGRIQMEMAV
The data set can be described thus: biochemical. The format is biochemical. To be noted: 37°C. As to the method: DHFR from Pneumocystis carinii was produced as the recombinant enzyme expressed in Escherichia coli. […] Organisms were introduced into a confluent monolayer and harvested when the mammalian cells were lysed. The 100,000× g supernate was stored in liquid nitrogen.
as §1, §2

Data set [5] concerns T. gondii tachyzoites (RH strain). The data set can be described thus: Murine toxoplasmosis, i.p. JPC-2067-B, peritoneal parasite burden. It counts as in vivo, mice (outbred Swiss Webster). How it is done: Tachyzoites also were used to infect mice. Outbred Swiss Webster mice were bred in our specific pathogen free colony. When they were approximately 30 g, they received 10,000 RH strain tachyzoites intra-peritoneally (i.p.); numbers of parasites present in peritoneal fluid were counted four days later as described,[13]. Mice were maintained and utilized in accordance with IACUC and NIH guidelines and approvals. JPC-2067-B was administered parenterally. In initial studies, this was given 15 minutes after i.p. infection and then each day for four days(1.25 mg/kg/day). […] Control mice received 1% DMSO in PBS. For these parenterally treated mice, female mice received a dose of 1.25 mg/kg/day of JPC-2067-B, administered i.p. for the next 3 days. Control mice received an equivalent amount of DMSO (1%) in 1× PBS. In a separate experiment, DMSO at this concentration was shown not to modify subsequent parasite numbers when compared with i.p. inoculation of PBS. […] In contrast, infected control mice appeared ill, with ruffled fur and hunched posture. […] These differences between control and treated mice were statistically significant (p<0.05).

In data set [6] the target is PfDHFR (Plasmodium falciparum, UniProt Q8I1R6). The data set can be described thus: Plate reader DHFR assay, recombinant P. falciparum DHFR. It counts as biochemical. An excerpt: DHFR from T. gondii prepared as above was also directly compared to purified recombinant P. falciparum DHFR (pfDHFR) and purified recombinant human DHFR (hDHFR). The hDHFR was from pDFR plasmid. The enzyme was purified following ammonium sulfate precipitation, methotrexate:agarose affinity chromatography, and finally a Superdex 200 size exclusion column. The pfDHFR isolation methods were those reported previously,[44]. […] The same buffer as used in the other assays comparing T. gondii DHFR with DHFRs from rat liver P. carinii and M. avium intracellulare was used but the maximal activity, temperature, and length of observation were adjusted for assays on the specific plate reader. […] The reaction was setup at 23°C, the plate loaded, and the OD340 recorded at 20 second intervals for 10 minutes. The first 8 minutes were used to generate linear fit slopes in Excel. […] Results are expressed as the percent of control activity versus log concentration of inhibitor. Prism 5.0 was used to generate curves from 12 different concentrations of inhibitor using a non-linear fit method.
Sequence of PfDHFR (Q8I1R6 entry or part of it): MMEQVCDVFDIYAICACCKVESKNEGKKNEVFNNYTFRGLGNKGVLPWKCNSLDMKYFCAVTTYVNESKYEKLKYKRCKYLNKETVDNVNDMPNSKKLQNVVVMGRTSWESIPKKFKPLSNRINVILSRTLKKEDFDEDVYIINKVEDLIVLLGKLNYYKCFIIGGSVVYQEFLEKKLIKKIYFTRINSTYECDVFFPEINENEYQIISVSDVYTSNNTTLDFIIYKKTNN

In the case of `CC1(C)N=C(N)N=C(N)N1OCCCOc1ccc(OC(F)(F)F)cc1Cl` [JPC-2067-B, 4,6-diamino-1,2-dihydro-2,2-dimethyl-1-(3′(2-chloro-, 4-trifluoromethoxyphenoxy)propyloxy)-1,3,5-triazine], the pIC50 (in general, the IC50 on a negative log10 scale, so that one unit is a factor of ten) in data set [1] is 7.65; in data set [4] ((95% confidence limits), read-out: Tg DHFR IC50) it was 8.19; in data set [6] (recombinant, 23°C, (95% Confidence Intervals), read-out: PfDHFR IC50), 8.41; in data set [6] (text to Figure 5 and Table 2, read-out: IC50 for P. falciparum DHFR), 8.41. Besides, the “Plaques or growth of parasites after removal of compound (cidal effect)” value in data set [2] was “No plaques or Toxoplasma were seen throughout 52 days of culture; also recorded: No plaques or growth of parasites were detected”. Moreover, in data set [3], the “Ames Test, with and without microsomal activation” value was “No activity”. The “Ames w/o Activation” value in data set [3] is on record as “Not Active ^*”. In data set [3], the “Ames with Activation” value is reported as “Not Active ^*”. In data set [4] (lysates), the “Ratio of IC50 values rat liver DHFR/TgDHFR” value was 3.4. Besides, in data set [5] (1.25 mg/kg/day i.p., 10,000 RH tachyzoites i.p., fifth day after injection of parasites, p<0.05), the Intraperitoneal parasite numbers entry is “reduced by two logs”. In addition, the “Appearance of treated mice” value in data set [5] (1.25 mg/kg/day i.p., 4 days after infection) is “sleek and active”.
